Here are results for ten compounds from patent publication US20080234254A1, “Inhibitors of Histone Deacetylase” (UNIVERSITY OF LEEDS, priority 2004, published 2008).

SMILES strings stand for the structures. Like-named read-outs stand apart in the source and are kept apart here.

Broadly, the melting point is the temperature, or range, at which the solid turns liquid. One may read the TGI as the concentration giving total growth inhibition. Read a low TGI as greater sensitivity of the cells.

One data set has as its system NCI-H23. Put plainly: Screening against cancer cell lines: NCI-H23 (Non-Small Cell Lung). The format is cell-based. From the text: (§1) Screening of Benzamide Derivatives Against Cancer Cell Lines Tables 1 and 2 tabulate by way of example the results obtained for compounds (4) and (6).
(§2) 8 non-small cell lung cancer cell lines were screened against both compound (4) and MS275.

The subject of the next data set is IGROV1. Put plainly: Screening against cancer cell lines: IGROV1 (Ovarian). It counts as cell-based. The note with it: for GI50: IGROV-1.
Excerpt: as §1
(§3) 6 ovarian cancer cell lines were screened against both compound (4) and MS275.

The test system of the next data set is NCI-H522. Put plainly: Screening against cancer cell lines: NCI-H522 (Non-Small Cell Lung). The format is cell-based.
Excerpt: as §1, §2

Another data set deals with HCC-2998. Put plainly: Screening against cancer cell lines: HCC-2998 (Colon). It counts as cell-based.
Excerpt: as §1
(§4) 6 colon cancer cell lines were screened against both compound (4) and MS275.

The subject of a further data set is LOX IMVI. Kind of data set: Screening against cancer cell lines: LOX IMVI (Melanoma). The format is cell-based.
Excerpt: as §1
(§5) 7 melanoma cancer cell lines were screened against both compound (4) and MS275.

In another data set the test system is SR. Kind of data set: Screening against cancer cell lines: SR (Leukaemia). It counts as cell-based.
Excerpt: as §1

In the next data set the test system is NCI/ADR-RES. Kind of data set: Screening against cancer cell lines: NCI/ADR-RES (Breast). It counts as cell-based.
Excerpt: as §1
(§6) 7 breast cancer cell lines were screened against both compound (4) and MS275.

The test system of another data set is MDA-MB-435. Put plainly: Screening against cancer cell lines: MDA-MB-435 (Breast). It counts as cell-based.
Excerpt: as §1, §6

A further data set deals with cancer cell lines. Put plainly: Screening of benzamide derivatives against cancer cell lines (summary). The format is cell-based. Particulars: summary of Tables 1 and 2.
Excerpt: as §1

Another data set relates to MDA-MB-231/ATCC. Put plainly: Screening against cancer cell lines: MDA-MB-231/ATCC (Breast). The note with it: Homo sapiens, breast cancer, comparison versus MS275, read-out: potency (quantity not named; values match GI50 of Table 1). It counts as cell-based.
Excerpt: as §1, §6

The next data set concerns SN12C. Put plainly: Screening against cancer cell lines: SN12C (Renal). The format is cell-based. Particulars: Homo sapiens, renal cancer, comparison versus MS275, read-out: potency (quantity not named; values match GI50 of Table 1).
Excerpt: as §1
(§7) 7 renal cancer cell lines were screened against both compound (4) and MS275.

The next data set concerns SK-OV-3. Kind of data set: Comparison test versus MS275: SK-OV-3 (ovarian cancer). Particulars: Homo sapiens, read-out: potency (quantity not named; values match GI50 of Table 1). The format is cell-based.
Excerpt: as §3

For a further data set, the system named is HCT-15. Kind of data set: Screening against cancer cell lines: HCT-15 (Colon). The format is cell-based. The note with it: Homo sapiens; HCT-15, colon cancer; comparison versus MS275; read-out: potency (quantity not named; values match GI50 of Table 1).
Excerpt: as §1, §4

Another data set concerns UACC-257. Kind of data set: Screening against cancer cell lines: UACC-257 (Melanoma). It counts as cell-based. The note with it: Homo sapiens; UACC-257, melanoma; comparison versus MS275; read-out: potency (quantity not named; values match GI50 of Table 1).
Excerpt: as §1, §5

The subject of a further data set is OVCAR-4. Kind of data set: Comparison test versus MS275: OVCAR-4 (ovarian cancer). The format is cell-based. The note with it: Homo sapiens, read-out: potency (quantity not named; values match GI50 of Table 1).
Excerpt: as §3

For another data set, the system named is 786-0. Kind of data set: Comparison test versus MS275: 786-0 (renal cancer). The format is cell-based. Particulars: Homo sapiens, read-out: potency (quantity not named; values match GI50 of Table 1).
Excerpt: as §7

The test system of another data set is KM-12. Put plainly: Comparison test versus MS275: KM-12 (colon cancer). The format is cell-based. Particulars: Homo sapiens, KM12, read-out: potency (quantity not named; values match GI50 of Table 1).
Excerpt: as §4

In the next data set the test system is ACHN. Put plainly: Screening against cancer cell lines: ACHN (Renal). The format is cell-based. The note with it: Homo sapiens, renal cancer, comparison versus MS275, read-out: potency (quantity not named; values match GI50 of Table 1).
Excerpt: as §1, §7

The subject of the next data set is SK-MEL-28. Put plainly: Screening against cancer cell lines: SK-MEL-28 (Melanoma). It counts as cell-based. Particulars: Homo sapiens; SK-MEL-28, melanoma; comparison versus MS275; read-out: potency (quantity not named; values match GI50 of Table 1).
Excerpt: as §1, §5

The subject of another data set is RXF 393. Kind of data set: Screening against cancer cell lines: RXF 393 (Renal). It counts as cell-based. The note with it: Homo sapiens; RXF 393, renal cancer; comparison versus MS275; read-out: potency (quantity not named; values match GI50 of Table 1).
Excerpt: as §1, §7

The subject of a further data set is tumours. Particulars: mice; cited from earlier work.
The subject of a further data set is rat fibroblasts. Particulars: cited from earlier work.

The compound `C=C(CN1CCOCC1)c1ccc(C(=O)Nc2ccccc2N)cc1` [(1), N-(2-Amino-phenyl)-4-(1-morpholin-4-ylmethyl-vinyl)-benzamide] came in with a melting point of 163 to 164 °C.

Compound `C=C(CN(C)Cc1ccccc1)c1ccc(C(=O)Nc2ccccc2N)cc1` [(2), N-(2-amino-phenyl)-4-(1-{[benzyl(methyl)amino]methyl}vinyl)benzamide] registered a melting point of 110 to 111 °C.

Turning to `C=C(CN1CCc2c([nH]c3ccccc23)C1)c1ccc(C(=O)Nc2ccccc2N)cc1` [(6), N-(2-aminophenyl)-4-[1-(1,3,4,9-tetrahydro-2H-β-carbolin-2-ylmethyl)vinyl]benzamide], the GI50 was determined as 1040 nM with NCI-H23 (Homo sapiens, NCI-H23); 32 nM with IGROV1 (Homo sapiens); 150 nM in the data set with NCI-H522 (Homo sapiens, NCI-H522); 731 nM in the data set on HCC-2998 (Homo sapiens, HCC 2998); 763 nM in the data set on LOX IMVI (Homo sapiens); 622 nM in the data set on SR (Homo sapiens). For the same compound, the GI50 in the data set on NCI/ADR-RES (Homo sapiens) was determined as 973 nM; with MDA-MB-435 (Homo sapiens, MDA-MB-435), 0.948 µM. The CC50 with NCI-H23 (Homo sapiens, NCI-H23, read-out: LC50) was 13.4 µM; with IGROV1 (Homo sapiens, IGROV-1, read-out: LC50), greater than 50 µM; in the data set on NCI-H522 (Homo sapiens, NCI-H522, read-out: LC50), greater than 50 µM; in the data set with HCC-2998 (Homo sapiens, HCC 2998, read-out: LC50), 5 µM; with LOX IMVI (Homo sapiens, read-out: LC50) it was greater than 50 µM; with SR (Homo sapiens, read-out: LC50), greater than 50 µM. The CC50 in the data set with NCI/ADR-RES (Homo sapiens, read-out: LC50) was 18.3 µM; in the data set with MDA-MB-435 (Homo sapiens, MDA-MB-435, read-out: LC50) it was 5.6 µM. In addition, the TGI was 3.2 µM with NCI-H23 (NCI-H23, Non-Small Cell Lung, Table 2); 8.5 µM with IGROV1 (IGROV1, Ovarian, Table 2); 3.0 µM with NCI-H522 (NCI-H522, Non-Small Cell Lung, Table 2); 1.9 µM in the data set on HCC-2998 (HCC-2998, Colon, Table 2); 2.4 µM with LOX IMVI (Melanoma, Table 2); “— (‘—’ indicates a concentration exceeding 50 μM.)” in the data set on SR (Leukaemia, Table 2). In addition, the TGI in the data set with NCI/ADR-RES (Breast, Table 2) amounted to 3.9 µM; in the data set with MDA-MB-435 (MDA-MB-435, Breast, Table 2), 2.2 µM. In addition, in the data set on cancer cell lines, the “activity against cancer cell lines (in words)” value is “nanomolar activity”.

Compound `C=C(CNCc1ccccc1)c1ccc(C(=O)Nc2ccccc2N)cc1` [(7), N-(2-aminophenyl)-4-{1-[(benzylamino)methyl]vinyl}benzamide] had a melting point of 89 to 91 °C.

Compound `C=C(CN1CCN(c2ccccc2OC)CC1)c1ccc(C(=O)Nc2ccccc2N)cc1` [(9), N-(2-aminophenyl)-4-{1-[4-(2-methoxy-phenyl)-piperazin-1-ylmethyl]vinyl}-benzamide] came in with a melting point of 115 to 116 °C.

Take `C=C(CN1CCOCC1)c1ccc(CC(=O)Nc2ccccc2N)cc1` [(11), N-(2-Amino-phenyl)-2-[4-(1-morpholin-4-ylmethyl-vinyl)-phenyl]-acetamide]: the melting point worked out at 129 °C.

The compound `C=C(CN1CCOCC1)c1ccc(CCCC(=O)Nc2ccccc2N)cc1` [(13), N-(2-Amino-phenyl)-4-[4-(1-morpholin-4-ylmethyl-vinyl)-phenyl]-butanamide] registered a melting point of 79 to 81 °C.

As to `CC(C)=C(CN1CCc2ccccc2C1)c1ccc(C(=O)Nc2ccccc2N)cc1` [(14), N-(2-Amino-phenyl)-4-[1-(3,4-dihydro-1H-isoquinolin-2-ylmethyl)-2-methyl-propenyl]-benzamide], the melting point came out at 120 °C.

Turning to `Nc1ccccc1NC(=O)c1ccc(CNC(=O)OCc2cccnc2)cc1` [MS275, reference compound], the GI50 in the data set on MDA-MB-231/ATCC stood at 2000 nM; in the data set on SN12C, 5.01 µM; in the data set with SK-OV-3 it was 5.01 µM; in the data set with NCI-H23 (Homo sapiens, NCI-H23, non-small cell lung cancer, comparison versus MS275, read-out: potency (quantity not named; values match GI50 of Table 1)) it was 1030 nM; in the data set with IGROV1 (Homo sapiens, IGROV1, ovarian cancer, comparison versus MS275, read-out: potency (quantity not named; values match GI50 of Table 1)), 2510 nM; in the data set on HCT-15, 3.98 µM. Further, the GI50 with UACC-257 turned out to be 1540 nM; with OVCAR-4 it was 20 µM; in the data set on NCI-H522 (Homo sapiens, NCI-H522, non-small cell lung cancer, comparison versus MS275, read-out: potency (quantity not named; values match GI50 of Table 1)), 1000 nM; in the data set on 786-0, 3.16 µM; in the data set on HCC-2998 (Homo sapiens, HCC-2998, colon cancer, comparison versus MS275, read-out: potency (quantity not named; values match GI50 of Table 1)), 1260 nM; with LOX IMVI (Homo sapiens, melanoma, comparison versus MS275, read-out: potency (quantity not named; values match GI50 of Table 1)), 790 nM. Besides, the GI50 was determined as 25 µM with KM-12; 2000 nM in the data set with ACHN; 1260 nM in the data set with NCI/ADR-RES (Homo sapiens, breast cancer, comparison versus MS275, read-out: potency (quantity not named; values match GI50 of Table 1)); 10 µM in the data set on MDA-MB-435 (Homo sapiens, MDA-MB-435, breast cancer, comparison versus MS275, read-out: potency (quantity not named; values match GI50 of Table 1)); 2000 nM in the data set on SK-MEL-28; 2000 nM with RXF 393.

For the compound `CC(/C=C/C(=O)NO)=C\[C@@H](C)C(=O)c1ccc(N(C)C)cc1` [Trichostatin A], the formation of tumours result with tumours was “prevent the formation of tumours in mice”. The “effect on the cell cycle” value in the data set with rat fibroblasts is “arrest of rat fibroblasts at the G1 and G2 phases of the cell cycle”.
